Values of other authors as cited in patent publication US11246852B2, “Fast-acting plant-based medicinal compounds and nutritional supplements” (RECEPTOR HOLDINGS, INC., priority 2016, dated 2022).

## CCCCCc1cc(O)c2c(c1)OC(C)(C)[C@@H]1CCC(C)=C[C@@H]21 [THC, delta-9-tetrahydrocannabinol]
After administration
  appetite stimulant effect may continue for: ≥ 24 h
After oral administration, psychoactive effects
  duration of action: 4 to 6 h
